Entries after “also recorded” stand apart in the source; their conditions may differ. Read-outs that look alike come from different tables or passages of the source.
What was measured:
[1] = test system: repair of damage caused by ionizing radiation; conditions: background; cited from earlier work
[2] = target: T1, Poly (ADP-ribose) synthetase (Bos taurus, UniProt P18493); assay: Inhibition of Poly (ADP-ribose) synthetase (ADPRP inhibition); format: biochemical; conditions: [3H]NAD, calf thymus DNA and histone, pH 8.0, 30° C., 15 minutes
T1 construct: Poly(ADP-ribose) synthetase from calf thymus; from tissue; host or cells: calf thymus
T1 sequence (P18493 whole entry): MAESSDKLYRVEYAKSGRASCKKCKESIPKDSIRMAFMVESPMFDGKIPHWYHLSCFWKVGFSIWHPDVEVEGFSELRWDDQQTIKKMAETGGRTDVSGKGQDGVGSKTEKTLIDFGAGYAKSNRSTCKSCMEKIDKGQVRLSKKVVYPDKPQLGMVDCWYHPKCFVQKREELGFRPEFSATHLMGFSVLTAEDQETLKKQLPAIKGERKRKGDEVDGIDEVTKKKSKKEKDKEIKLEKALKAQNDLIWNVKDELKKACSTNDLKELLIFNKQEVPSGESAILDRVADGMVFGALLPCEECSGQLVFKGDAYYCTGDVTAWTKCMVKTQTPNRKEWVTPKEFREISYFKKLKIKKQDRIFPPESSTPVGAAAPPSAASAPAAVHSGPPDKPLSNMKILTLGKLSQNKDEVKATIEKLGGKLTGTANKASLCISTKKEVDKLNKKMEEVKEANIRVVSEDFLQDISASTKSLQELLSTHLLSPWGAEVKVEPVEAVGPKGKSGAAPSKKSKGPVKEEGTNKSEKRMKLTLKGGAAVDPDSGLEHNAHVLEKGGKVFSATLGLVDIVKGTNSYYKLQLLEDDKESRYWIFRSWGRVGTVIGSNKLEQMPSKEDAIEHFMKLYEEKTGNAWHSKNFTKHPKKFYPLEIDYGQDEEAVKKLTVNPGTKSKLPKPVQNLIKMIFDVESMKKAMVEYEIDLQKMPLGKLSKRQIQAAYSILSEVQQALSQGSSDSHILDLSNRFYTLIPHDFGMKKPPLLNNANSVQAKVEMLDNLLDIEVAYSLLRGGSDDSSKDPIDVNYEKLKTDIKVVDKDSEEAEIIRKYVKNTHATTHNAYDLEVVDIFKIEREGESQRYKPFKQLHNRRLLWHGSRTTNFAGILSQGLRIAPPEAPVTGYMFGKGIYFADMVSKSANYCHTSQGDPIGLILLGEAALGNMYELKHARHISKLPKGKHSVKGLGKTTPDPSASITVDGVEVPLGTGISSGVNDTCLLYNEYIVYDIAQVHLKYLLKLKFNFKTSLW
Method: Poly (ADP-ribose) synthetase is partially purified by the procedure of Shizuta, et al, up to and including the DNA-agarose column step. Active fractions are pooled and stored in small aliquots at -90° C. The specific activity was generally in the range of 25 U/rag protein, where one unit of enzyme activity is defined as the amount polymerizing 1 nmol of ADP-ribose moiety from [^3 H]NAD per minute at 30° C.
The enzyme assay is performed by placing the following in small glass tubes kept at 4° C.: 100 μL of buffer consisting of 0.5 M Tris-HCl pH 8.0, 50 mM MgCl2, and 5 mM dithiothreitol; 50 μL of 1 mM [adenine-2,8-^3 H]nicotinamide adenine dinucleotide at a concentration of 15 μCi/mL; 100 μL of calf thymus DNA (0.3 mg/mL in water); 50 μL of calf thymus histone (Sigma, Type IIA, 0.5 mg/mL); 50 μL of inhibitor or inhibitor solvent; 150 μL of enzyme (25 μg). The components are thoroughly mixed and warmed to 30° C. in a water bath. After 15 minutes the reaction is stopped by adding 2 mL of ice cold 15% trichloroacetic acid and the tubes are placed on ice for 15 minutes. The precipitate is collected on glass fiber filters and washed five times with ice-cold 15% trichloroacetic acid. The filters are dried and radioactivity determined in a liquid scintillation counter.

Rif-1 sarcoma = assay: In Vivo Assay for Radiosensitizing Activity (Rif-1 sarcoma); set-up: species or system mice; conditions: IP 30 minutes before first x-ray dose, Days 6-10 and 13-17, x-Ray only T-C 18 days
Method: Mice were implanted with 1.9×10^5 Rif-1 sarcoma cells on Day 0. Treatment was on Days 6-10 and 13-17. On each treatment day the tumor-bearing limb received two doses of 2.5 Gy X-irradiation separated by 3 hours. Test compound was administered IP 30 minutes prior to the first x-ray dose on each treatment day. Effectiveness is measured by the T-C, the difference in days for the treated and control tumors, respectively, to reach 1000 mg.

hypoxic tumor cells = conditions: in vitro and in vivo, background, cited from earlier work
central nervous system = conditions: cited from earlier work

Row | IC50 [2] | SMILES | other results
1 | 10 to 100 µM | C[n+]1cccc2c(=O)[nH]ccc21 [Compound 7, 5,6-Dihydro-1-methyl-5-oxo-1,6-naphthyridin-1-ium monoiodide] | 
2 | 0.51 µM | CN1CCCc2c1cc[nH]c2=O [Compound 8, 1,2,3,4-Tetrahydro-1-methyl-1,6-naphthyridin-5 (6H) one] | T-C (days for treated minus control tumors to reach 1000 mg) (Rif-1 sarcoma; 340 mg/kg/inj + x-Ray (2.5 Gy × 2)): 38 days
3 | 10 to 100 µM | O=c1[nH]ccc2c1ccc[n+]2[O-] [Compound 9, 1,6-Naphthyridine-5(6H)-one, 1-oxide] | 
4 | 2.5 µM | O=C1NCCc2ncccc21 [Compound 13, 7,8-Dihydro-1,6-naphthyridin-5(6H)-one] | T-C (days for treated minus control tumors to reach 1000 mg) (Rif-1 sarcoma; 500 mg/kg/inj + x-Ray (2.5 Gy × 2)): 26 days
5 | 0.11 µM | Cc1cccc2c1CCNC2=O [Reference Compound] | 

Continued, molecule first:

Row | SMILES | IC50 [2] | other results
6 | NC(=O)c1cccc(N)c1 [3-aminobenzamide] |  | sensitization to lethal effects of radiation / inhibition of repair [1]: inhibit this postirradiation repair process; also recorded: repair of damage caused by exposure to DNA-damaging agents such as ionizing radiation, was inhibited
7 | O=c1[nH]ccc2ncccc12 [Compound 3, 1,6-Naphthyridine-5(6H)-one] | 1 to 10 µM | 
8 | Cc1cc2ncccc2c(=O)[nH]1 [Compound 4, 7-Methyl-1,6-naphthyridine-5 (6H) -one] | 1.2 µM | 
9 | O=c1[nH]cc(Br)c2ncccc12 [Compound 5, 8Bromo-1,6-naphthyridine-5(6H) -one] | 1 to 10 µM | 
10 | O=c1[nH]ccc2c1CCCN2 [Compound 6, 1,2,3,4-Tetrahydro-1,6-naphthyridine-5(6H)-one] | 1 to 10 µM | 
11 | CNC=O [N-methylformamide] |  | sensitization to lethal effects of radiation / inhibition of repair [1]: sensitize tumors to the lethal effects of radiation
12 | Cc1ncc([N+](=O)[O-])n1CCO [metronidazole, 2-methyl-5-nitro-1H-imidazole-1-ethanol] |  | radiosensitizing activity (hypoxic tumor cells): effective as radiosensitizers for hypoxic cells in vivo; radiosensitizing activity (hypoxic tumor cells; listed as Metronidazole): active both in vitro and in vivo as a radiosensitizer; CNS side effects (central nervous system; mouse, in vivo): peripheral neuropathy effects and convulsions in mice
13 | COCC(O)Cn1ccnc1[N+](=O)[O-] (stereo not drawn) [misonidazole, α-(methoxymethyl)-2-nitro-1H-imidazole-1-ethanol] |  | radiosensitizing activity (hypoxic tumor cells): of value as a radiosensitizer for hypoxic tumor cells; also recorded: effective as radiosensitizers for hypoxic cells in vivo; CNS side effects (central nervous system; administered to mice): peripheral neuropathy effects and convulsions in mice

From US5391554A, “Dihydro- and tetrahydronaphthyridines” (Warner-Lambert Company, priority 1992, dated 1995)
